This note sets out measurements from ChEMBL document CHEMBL4811260, “Isolation, synthesis and absolute configuration of 4,5-dihydroxypiperines improving behavioral disorder in AlCl3-induced dementia” (2021).

The species entered for test [1] is Danio rerio. In words: Antialzheimer activity against AlCl3-induced dementia zebrafish model assessed as increase in dyskinesia recovery rate at 10 uM measured for 60 mins under alternating light and dark environment in presence of 150 uM of AlCl3 relative to control. The class given is functional.
For test [2], the species on record is Danio rerio. Put plainly: Antialzheimer activity against AlCl3-induced dementia zebrafish model assessed as increase in response efficiency at 10 uM measured for 60 mins under alternating light and dark environment in presence of 150 uM of AlCl3 relative to control. The class given is functional.
The species named for test [3] is Danio rerio. In words: Antialzheimer activity against AlCl3-induced dementia zebrafish model assessed as increase in zebrafish movement speed at 10 uM measured for 60 mins under alternating light and dark environment in presence of 150 uM of AlCl3. It is filed as functional, organism-based.
The species entered for test [4] is Danio rerio. In words: Antialzheimer activity against AlCl3-induced dementia zebrafish model assessed as increase in zebrafish movement speed change at 10 uM measured for 60 mins under alternating light and dark environment in presence of 150 uM of AlCl3. It is filed as functional, organism-based.

SMILES strings stand for the structures. Active and inactive are the calls of the source. The calls are words filed in the database; no cut-off is given here.

Turning to `O=C(/C=C/[C@H](O)[C@H](O)c1ccc2c(c1)OCO2)N1CCCCC1`, the result in test [1] and in test [2] was inactive.
With `O=C(/C=C/[C@H](O)[C@@H](O)c1ccc2c(c1)OCO2)N1CCCCC1`, the result in test [1] and in test [2] was inactive.
Take `O=C(/C=C/[C@@H](O)[C@@H](O)c1ccc2c(c1)OCO2)N1CCCCC1`: the Activity is recorded as 73.8% in test [1] (1 h) and 85.4% in test [2] (1 h). Further, the outcome in test [3] and in test [4] was Active.
`O=C(/C=C/[C@@H](O)[C@H](O)c1ccc2c(c1)OCO2)N1CCCCC1`: the outcome in test [1] and in test [2] was inactive.
